US9422231B2, “Method for inhibiting Trypanosoma cruzi” (HOWARD UNIVERSITY, priority 2011, dated 2016)
“And” between values parts separate entries of the source, which are not always exact repeats. Equal entries are not always repeated. Where two headings read alike, the source gives them in different places.

Tests used:
T. cruzi epimastigotes = conditions: Ramos et al., 2009; cited from earlier work
[1] = system: Balb/C 3T3 mouse fibroblasts (clone A31); assay: MTT cytotoxicity assay on Balb/C 3T3 mouse fibroblasts; format: cell-based; conditions: for Cytotoxicity compared with nifurtimox: Balb/C 3T3 mouse fibroblast cell line, FIG. 4; for IC50: 48 h
Method: (§1) A cytotoxicity assay was performed with representive analogs IMNDQ1 through IMNDQ11. […] MTT is a yellow tetrazolium salt that is reduced to purple formazan crystals by metabolically active cells. Cells (2.2×10^4 cells/well) were seeded in 96-well plate in Improved Minimum Essential Medium (IMEM). […] After 48 h incubation at 37° C. in the presence 5% CO2, the medium was aspirated and the cells washed twice to remove traces of chemical compounds. IMEM without phenol containing 10% (v/v) of 3 mg/ml MTT were added to each well. The plates were incubated for 4 h at 37° C. followed by aspiration. The plates were dried for 1 h in a 37° C. incubator. 100 μl of 0.04 N HCl in isopropanol were added to each well and incubated at room temperature (27° C.) in the dark for 2 h to dissolve the formazan crystals. The absorbance was measured spectrophotometrically at 570 nm in a plate reader. The concentration that reduces cell viability by 50% (IC50) was calculated for each compound. The toxicity for mammalian cells and the activity against T. cruzi were compared by calculating the selectivity index (SI), the ratio of IC50 for fibroblast cells/IC50 for parasites. The data were subjected to statistical analysis. All experiments were done in triplicate, the means and standard errors (S.E.) were determined. Data were analyzed by one way ANOVA and Tukey's multiple comparison test using GraphPad PRISM software version 5.00. P<0.05 was considered significant.

[2] = system: Trypanosoma cruzi epimastigotes (Tulahuen CL98 strain); assay: Antitrypanosomal activity against Trypanosoma cruzi epimastigotes (parasite count); format: cell-based; conditions: for IC50: T. cruzi epimastigotes, 48 h, mean ± S.E. of three experiments, read-out: Antitrypanocidal activity IC50; for Selectivity index greater/better than nifurtimox: in vitro selectivity index relative to nifurtimox; for Selectivity Index (Cytotoxicity/Activity): ratio of IC50 for fibroblast cells/IC50 for parasites
Method: (§2) The antitrypanosomal activity against Trypanosoma cruzi was assayed. Trypanosoma cruzi epimastigotes (Tulahuen CL98 strain) were cultured in liver infusion trypose (LIT) medium supplemented with 10% fetal bovine serum (FBS) at 28° C., with an inoculum of 1×10^5 cells/ml. […] All assays were carried out in triplicate. […] The data were subjected to statistical analysis. All experiments were done in triplicate, the means and standard errors (S.E.) were determined. Data were analyzed by one way ANOVA and Tukey's multiple comparison test using GraphPad PRISM software version 5.00. P<0.05 was considered significant.

[3] = target: purified Trypanosoma cruzi tublin (Trypanosoma cruzi, UniProt P08562+Q27352); assay: Tubulin assembly assay; format: biochemical; conditions: purified T. cruzi tubulin 1.2 mg/ml, absorbance at 405 nm, 30° C.; read-out: Tubulin polymerization Inhibition IC50
Method: Tubulin assembly assays were conducted to assess tubulin polymerization inhibition. The assays were conducted in a 96-well microplate. Assembly reactions were conducted in a buffer containing 0.1 M PIPES (pH 6.9), 1 mM EGTA, 5 mM Mgcl, 1.2 mg/ml purified Trypanosoma cruzi tublin, at concentrations (0.6-40 μM) of the imido-substituted 1,4-naphthoquinone (IMDNQ 1-IMDNQ 11). Components of the reaction mixtures were added to the microplate and assembly was initiated by the addition of 1 mM GTP. The assembly reactions were assayed photometrically by measuring the absorbance at 405 nm using a microplate reader at 30° C.

[4] = MTT cytotoxicity assay on Balb/C 3T3 mouse fibroblasts; format: cell-based; conditions: mouse, Cytotoxicity IC50
Method: as §1

[5] = Antitrypanosomal activity against Trypanosoma cruzi epimastigotes (parasite count); format: cell-based; conditions: mouse (fibroblasts) / Trypanosoma cruzi (parasites); ratio of IC50 for fibroblast cells/IC50 for parasites; read-out: Selectivity Index (Cytotoxicity/Activity)
Method: as §2

[6] = Balb/C 3T3 mouse fibroblasts, MTT, mean ± S.E. of three experiments, read-out: Cytotoxicity IC50

Structure (SMILES)	melting point	IC50 [2]	Selectivity Index (Cytotoxicity/Activity) [2]	other results
O=C1C(c2ccccc2)=C(c2ccccc2)C(=O)c2ccccc21 [2,3-diphenyl-1,4-naphthoquinone]	–	–	–	LD50 (T. cruzi epimastigotes): 2.5 µM
O=C1C(Cl)=C(N(C(=O)c2ccccc2)C(=O)c2ccccc2)C(=O)c2ccccc21 [Example 20, 2-Dibenzoylamino-3-chloro-1,4-naphthoquinone]	294 to 297 °C	–	–	–
O=C1C(Br)=C(N(C(=O)c2ccccc2)C(=O)c2ccccc2)C(=O)c2ccccc21 [Example 21, 2-Dibenzoylamino-3-bromo-1,4-naphthoquinone]	234 to 238 °C	–	–	–
O=C1C(Br)=C(N(C(=O)c2cccc(Cl)c2)C(=O)c2cccc(Cl)c2)C(=O)c2ccccc21 [Example 22, 2-bis-(3-chlorobenzoyl)amino-3-bromo-1,4-naphthoquinone]	204 to 206 °C	–	–	–
O=C1C(Br)=C(N(C(=O)c2ccc(Cl)cc2)C(=O)c2ccc(Cl)cc2)C(=O)c2ccccc21 [Example 23, 2-bis-(4-chlorobenzoyl)amino-3-bromo-1,4-naphthoquinone]	266 to 269 °C	–	–	–
CC(C)(C)c1ccc(C(=O)N(C(=O)c2ccc(C(C)(C)C)cc2)C2=C(Cl)C(=O)c3ccccc3C2=O)cc1 [Example 24, 2-bis-(4-tert-butylbenzoyl)amino-3-chloro-1,4-naphthoquinone]	257 to 260 °C	–	–	–
COc1ccc(C(=O)N(C(=O)c2ccc(OC)cc2)C2=C(Cl)C(=O)c3ccccc3C2=O)cc1 [Example 28, 2-bis-(4-methoxybenzoyl)amino-3-chloro-1,4-naphthoquinone]	283 to 287 °C	–	–	–
O=C1C(Cl)=C(N2C(=O)CCC2=O)C(=O)c2ccccc21 [IMDNQ1, 2-chloro-3-(N-succinimidyl)-1,4-naphthoquinone]	–	2.77 µM	60.25 and 60.25 ± 2.79	Cytotoxicity compared with nifurtimox [1]: far less cytotoxic than nifurtimox; IC50 [1, 6]: > 100 µM and 166 µM; Selectivity index greater/better than nifurtimox [2]: at least 300%; IC50 [3]: 6 µM
O=C1C(Cl)=C(N2C(=O)c3ccccc3C2=O)C(=O)c2ccccc21 [IMDNQ2]	–	4.89 µM and 4.83 µM	53.97 and 53.97 ± 5.95	Cytotoxicity compared with nifurtimox [1]: far less cytotoxic than nifurtimox; IC50 [1, 6]: 253.7 ± 1.87 µM; Selectivity index greater/better than nifurtimox [2]: at least 300%; IC50 [3]: 12 µM
CCCC(=O)N(C(=O)CCC)C1=C(Cl)C(=O)c2ccccc2C1=O [IMDNQ3]	–	0.7 µM	31.83 and 31.83 ± 3.17	IC50 [1, 6]: 21.7 µM; IC50 [3]: 3.2 µM
O=C1C(Cl)=C(N2C(=O)COCC2=O)C(=O)c2ccccc21 [IMDNQ4]	–	4.93 ± 0.64 µM	7.43 ± 0.97	IC50 [1, 6]: 35.5 ± 1.76 µM
O=C1C(Br)=C(N(C(=O)c2ccc(F)cc2)C(=O)c2ccc(F)cc2)C(=O)c2ccccc21 [IMDNQ5, N-(3-Bromo-1,4-dioxo-1,4-dihydronaphthalen-2-yl)-4-fluoro-N-(4-fluorobenzoyl)-benzamide]	170 to 172 °C	2.27 ± 0.15 µM	5.70 ± 0.06	IC50 at 48 h [4]: 12.8 µM
O=C1C(Br)=C(N(C(=O)c2ccccc2Cl)C(=O)c2ccccc2Cl)C(=O)c2ccccc21 [IMDNQ6, N-(3-Bromo-1,4-dioxo-1,4-dihydronaphthalen-2-yl)-2-chloro-N-(2-chlorobenzoyl)-benzamide]	232 to 234 °C	–	9.43 ± 0.94	IC50 at 48 h [4]: 14.2 µM; IC50 ([2]; Trypanosoma cruzi, TULAHUEN): 1.51 µM
O=C1C(Cl)=C(N(C(=O)c2ccc(Cl)cc2)C(=O)c2ccc(Cl)cc2)C(=O)c2ccccc21 [IMDNQ7, 4-Chloro-N-(4-chlorobenzoyl)-N-(3-chloro-1,4-dioxo-1,4-dihydronaphthalen-2-yl)-benzamide]	212 to 213 °C	–	14.23 ± 1.62	IC50 ([1]; mouse): 17.8 ± 2.21 µM; IC50 ([2]; Trypanosoma cruzi, TULAHUEN): 1.27 ± 0.15 µM
O=C1C(Cl)=C(N(C(=O)c2ccccc2Cl)C(=O)c2ccccc2Cl)C(=O)c2ccccc21 [IMDNQ8, 2-Chloro-N-(2-chlorobenzoyl)-N-(3-chloro-1,4-dioxo-1,4-dihydronaphthalen-2-yl)-benzamide]	217 to 218 °C	2.67 ± 0.33 µM	10.17 ± 0.97	IC50 at 48 h [4]: 26.5 µM
O=C1C(Cl)=C(N(C(=O)c2ccc(F)cc2)C(=O)c2ccc(F)cc2)C(=O)c2ccccc21 [IMDNQ9, N-(3-Chloro-1,4-dioxo-1,4-dihydronaphthalen-2-yl)-4-fluoro-N-(4-fluorobenzoyl)-benzamide]	284 to 286 °C	4.07 ± 0.23 µM	5.43 ± 0.69	IC50 at 48 h [4]: 21.8 µM
O=C1C(Cl)=C(N(C(=O)c2cccc(Cl)c2)C(=O)c2cccc(Cl)c2)C(=O)c2ccccc21 [IMDNQ10, 3-Chloro-N-(3-chlorobenzoyl)-N-(3-chloro-1,4-dioxo-1,4-dihydronaphthalen-2-yl)-benzamide]	258 to 260 °C	–	–	IC50 ([1]; mouse): 611 ± 10.3 µM; selectivity ratio at 48 h [5]: 275; IC50 ([2]; Trypanosoma cruzi, TULAHUEN): 2.23 µM; Selectivity index, times better than nifurtimox ([2]; calculated selectivity index relative to nifurtimox): about 25 times; Selectivity index greater/better than nifurtimox [2]: at least 300%; IC50 [3]: 8 µM
O=C1C(Cl)=C(N(C(=O)CCl)C(=O)CCl)C(=O)c2ccccc21 [IMDNQ11]	–	6.1 ± 0.38 µM	3.20 ± 0.44	IC50 [1, 6]: 19.7 ± 3.71 µM; IC50 [3]: > 40 µM
CC1CS(=O)(=O)CCN1/N=C/c1ccc([N+](=O)[O-])o1 (stereo not shown) [Nifurtimox, reference compound]	–	10.7 µM	–	–
